Counter-ions that a name gives are not always drawn. Like-named read-outs stand apart in the source and are kept apart here.
Columns and labels:
natural plant cells = conditions: formed from milli-molar amounts of glucosamine; cited from earlier work
[1] = system: glucosamine-6-phosphate deaminase encoded by nagB; test: Conversion of GA6P to F6P by glucosamine-6-phosphate deaminase, allosteric effect; assay type: biochemical, E. coli; conditions: FIG. 3
Excerpt: One aspect of the selection method of the present invention provides an additional advantageous feature. […] This surprising finding is in accordance with studies done with E. coli (Calcagno, M, et al (1984) Biochim Biophys Acta 787: 165-173). Thus, should any glucosamine be metabolised to NAGA and in turn eventually to NAG6P then that NAG6P would ensure conversion of GA6P to F6P by the enzyme glucosamine-6-phosphate deaminase or at least aid the conversion step. This is an advantageous feature of the highly preferred selection method of the present invention.

[2] = system: Solanum tuberosum cv Saturna explants; assay type: cell-based; conditions: for Number of transformed areas per explant / Number of transgenic shoots / Transformation frequency (number transgenic shoots/started explants) / Transformation frequency (%) (Number transgenic shoots/started explants): sucrose 7.5 g/l
Protocol: The disarmed Agrobacterium tumefaciens strain LBA 4404, containing the helper vir plasmid pRAL4404 (Hoekema et al, 1983 Nature 303 pp 179-180), was cultured on YMB agar (K2HPO4.3H2O 660 mg l^−1, MgSO4 200 mg l^−1, NaCl 100 mg l^−1, mannitol 10 g l^−1, yeast extract 400 mg l^−1, 0.8% w/v agar, pH 7.0) containing 100 mg l^−1 rifampicin and 500 mg l^−1 streptomycin sulphate. Transformation with pVICTOR IV GNG E35S nagB IV2 or pVICTOR IV GNG rbc nagB IV2 or pVICTOR IV GNG E35 S nagB was accomplished using the freeze-thaw method of Holters et al (1978 Mol Gen Genet 163 181-187) and transformants were selected on YMB agar containing 100 mg l^−1 rifampicin and 500 mg l^−1 streptomycin, and 50 mg l^−1 gentamycin sulphate. Transformation with a control construct lacking the nagB gene was performed in the same manner.
Shoot cultures of Solanum tuberosum cv Saturna were maintained on LS agar containing Murashige Skoog basal salts (Sigma M6899) (Murashige and Skoog, 1965, Physiol Plant 15 473-497) with 2 μM silver thiosulphate, and nutrients and vitamins as described by Linsmaier and Skoog (1965 Physiol Plant 18 100-127). Cultures were maintained at 25° C. with a 16 h daily photoperiod. After approximately 40 days, subculturing was performed during and the shoots cut into mononodal segments of approximately 8 mm length.
Shoot cultures of approximately 40 days maturity (5-6 cm height) were cut into 8 mm internodal segments and/or leaves were cut off and wounded by making 24 small cuts over the midrib of the leaf. These were then placed into liquid LS-medium containing Agrobacterium tumefaciens transformed with pVICTOR IV GNG E35 S nagB IV2 or pVICTOR IV GNG rbc nagB IV2 or pVICTOR IV GNG E35S nagB (A660=0.5, pathlength 1 cm). Following incubation at room temperature for 30 minutes, the segments were dried by blotting on to sterile filter paper and transferred to LS agar (0.8% w/v containing 2 mg l^−1 2,4-D and 500 μg l^−1 trans-zeatin. The explants were covered with filter paper, moistened with LS medium, and covered with a cloth for three days at 25° C. Following this treatment, the segments can be washed with liquid LS medium containing 800 mg l^−1 carbenicillin, and then transferred on to LS agar (0.8% w/v) containing 1 mg l^−1 trans-zeatin, […] gibberellic acid (GA3), with sucrose (eg 7.5 g l^−1). This agar can optionally contain glucosamine (eg 2.5 g l^−1). The segments were sub-cultured to fresh substrate each […]. In 3 to 4 weeks, shoots develop from the segments and the formation of new shoots continued for 3-4 months.
The transgenic plants may be verified by performing a GUS assay on the cointroduced β-glucuronidase gene according to Hodal, L. et al. (Pl. Sci. (1992), 87: 115-122).

[3] = system: non-transgenic guar cotyledons; assay type: cell-based; conditions: glucosamine 3.0 g/l
Protocol: In order to establish the toxicity of glucosamine to guar explants, a dose-response curve with glucosamine concentrations ranging from 0 to 5.0 g/l was made using non-transgenic guar cotyledons as explants. The effect on shoot formation on the explants was used to determine the toxicity of glucosamine (FIG. 20).
The guar explants were obtained as follows. Guar seeds were sterilized in a 2.5% sodium hypochlorite solution at pH 7.0 added two drops of Tween 80 pr 100 ml solution. The seeds were stirred for 25 minutes in this solution and then washed five times with sterile water. Seeds were sown on germination medium (4.43 g/l MSMO (Sigma M6899), 20 g/l sucrose, 8.0 g/l agar, pH adjusted to 5.8 with KOH) and placed at 25° C. for 11-13 days at a 12 h/12 h day/night regime.
The cotyledons including about 2 mm of hypocotyl were excised from the seedlings and were used as explants for this experiment as well as for transformation experiments. The cotyledons were placed on selection medium containing various concentrations of glucosamine.
0-5 g/l D-glucosamine, HCl (according to the experiment)
After three weeks, the percentage of explants forming shoots on the various glucosamine containing media were determined and the results are given in FIG. 20.
In order to be able to find appropriate selection conditions, some factors affecting the toxicity of glucosamine were studied. Initially, sucrose was tested at various concentrations (5-40 g/l) in the selection medium. […] It is expected that other saccharides such glucose, fructose, maltose, mannose etc may also affect the effect of glucosamine.
Next, the effect of the concentration of the Gamborg B5 salts in the selection medium was tested in the presence of glucosamine (3.0 g/l). We investigated the use of these salts with a view to decreasing the carbon content of the medium.

[4] = system: guar cotyledonary explants transformed with nagB; test: Selection of transgenic guar shoots on glucosamine selection medium, GUS histochemical assay; assay type: cell-based, Cyamopsis tetragonoloba
Protocol: Transformation of guar cotyledonary explants was performed according to Joersbo and Okkels (PCT/DK95/00221) using Agrobacterium tumefaciens LBA4404 harbouring the plasmid shown in FIG. 10. Selection of transgenic shoots was accomplished using the above-mentioned selection medium with various concentrations of glucosamine, sucrose and Garnborg B5 salts. After four weeks the shoots were harvested and all explants were transferred to fresh selection medium (same composition) and after another four weeks of selection the last shoots were harvested. After harvest, the shoots were analysed for β-glucuronidase (GUS) activity using the histochemical assay (Jefferson et al, 1987, EMBO J 6: 3901-3907).

[5] = second table, glucosamine 1 g/l
[6] = second table, glucosamine 2.5 g/l
[7] = second table, glucosamine 5 g/l
[8] = second table, glucosamine 7.5 g/l
[9] = second table, glucosamine 10 g/l
[10] = glucosamine 2 g/l, NH4/NO3 1298 g/l
[11] = glucosamine 2.5 g/l, NH4/NO3 1189 g/l
[12] = glucosamine 3 g/l, NH4/NO3 1093 g/l

N[C@H]1C(O)O[C@H](COP(=O)(O)O)[C@@H](O)[C@@H]1O (stereo partly drawn) [GA6P, glucosamine-6-phosphate]
Toxicity to natural plant cells (natural plant cells): toxic to natural plant cells

CC(=O)N[C@H]1C(O)O[C@H](COP(=O)(O)O)[C@@H](O)[C@@H]1O (stereo partly drawn) [NAG6P, N-acetyl glucosamine 6-phosphate]
Effect on the conversion of GA6P to F6P by glucosamine-6-phosphate deaminase [1]: positive effect (an allosteric effect)

N[C@H]1C(O)O[C@H](CO)[C@@H](O)[C@@H]1O (stereo partly drawn) [glucosamine, D-glucosamine, HCl]
Effect of NH4NO3 content on toxicity of glucosamine [2]: lowering the content of NH4NO3 makes the glucosamine less toxic | Number of transformed areas per explant [2, 5]: 3.8 | Number of transgenic shoots [2, 5]: 1 | Transformation frequency (number transgenic shoots/started explants) [2, 5]: 2 | Number of transformed areas per explant [2, 6]: 0 | Number of transgenic shoots [2, 6]: 0 | Transformation frequency (number transgenic shoots/started explants) [2, 6]: 0 | Number of transformed areas per explant [2, 7]: 0 | Number of transgenic shoots [2, 7]: 0 | Transformation frequency (number transgenic shoots/started explants) [2, 7]: 0 | Number of transformed areas per explant [2, 8]: 0 | Number of transgenic shoots [2, 8]: 0 | Transformation frequency (number transgenic shoots/started explants) [2, 8]: 0 | Number of transformed areas per explant [2, 9]: 0 | Number of transgenic shoots [2, 9]: 0 | Transformation frequency (number transgenic shoots/started explants) [2, 9]: 0 | Number of transformed areas per explant ([2]; glucosamine 2 g/l): 0 | Transformation frequency (%) (Number transgenic shoots/started explants) ([2]; glucosamine 2 g/l): 0% | Number of transformed areas per explant [2, 10]: 0.025 | Number of transgenic shoots [2, 10]: 0 | Transformation frequency (%) (Number transgenic shoots/started explants) [2, 10]: 0% | Number of transgenic shoots ([2]; glucosamine 2 g/l, NH4/NO3 1650 g/l): 0 | Number of transformed areas per explant ([2]; glucosamine 2.5 g/l): 0 | Transformation frequency (%) (Number transgenic shoots/started explants) ([2]; glucosamine 2.5 g/l): 0% | Number of transformed areas per explant [2, 11]: 0 | Number of transgenic shoots [2, 11]: 0 | Transformation frequency (%) (Number transgenic shoots/started explants) [2, 11]: 0% | Number of transgenic shoots ([2]; glucosamine 2.5 g/l, NH4/NO3 1650 g/l): 0 | Number of transformed areas per explant ([2]; glucosamine 3 g/l): 0 | Transformation frequency (%) (Number transgenic shoots/started explants) ([2]; glucosamine 3 g/l): 0% | Number of transformed areas per explant [2, 12]: 0 | Number of transgenic shoots [2, 12]: 0 | Transformation frequency (%) (Number transgenic shoots/started explants) [2, 12]: 0% | Number of transgenic shoots ([2]; glucosamine 3 g/l, NH4/NO3 1650 g/l): 0 | Shoot formation on guar explants (%) ([3]; Gamborg B5 salts in selection medium 1.6 g/l): 6.2% | Shoot formation on guar explants (%) ([3]; Gamborg B5 salts in selection medium 2.4 g/l): 9.1% | Shoot formation on guar explants (%) ([3]; Gamborg B5 salts in selection medium 3.2 g/l): 17.4% | No of GUS-positive shoots ([4]; sucrose 10 g/l, glucosamine 2.5 g/l, B5-salts 3.2 g/l): 2 | No of GUS-positive shoots ([4]; sucrose 20 g/l, glucosamine 2.5 g/l, B5-salts 2.4 g/l): 1 | No of GUS-positive shoots ([4]; sucrose 20 g/l, glucosamine 3.0 g/l, B5-salts 2.4 g/l): 1
